Measurements reported in paper PMC3634089 (The Korean Journal of Physiology & Pharmacology : …, 2013).

Biological target: GABAC receptor ρ1 subunit (Homo sapiens, UniProt P24046)
Test: two-electrode voltage clamp in Xenopus oocytes expressing human ρ[…]
Assay type: cell-based

Sequence of GABAC receptor ρ1 subunit (P24046 22-479): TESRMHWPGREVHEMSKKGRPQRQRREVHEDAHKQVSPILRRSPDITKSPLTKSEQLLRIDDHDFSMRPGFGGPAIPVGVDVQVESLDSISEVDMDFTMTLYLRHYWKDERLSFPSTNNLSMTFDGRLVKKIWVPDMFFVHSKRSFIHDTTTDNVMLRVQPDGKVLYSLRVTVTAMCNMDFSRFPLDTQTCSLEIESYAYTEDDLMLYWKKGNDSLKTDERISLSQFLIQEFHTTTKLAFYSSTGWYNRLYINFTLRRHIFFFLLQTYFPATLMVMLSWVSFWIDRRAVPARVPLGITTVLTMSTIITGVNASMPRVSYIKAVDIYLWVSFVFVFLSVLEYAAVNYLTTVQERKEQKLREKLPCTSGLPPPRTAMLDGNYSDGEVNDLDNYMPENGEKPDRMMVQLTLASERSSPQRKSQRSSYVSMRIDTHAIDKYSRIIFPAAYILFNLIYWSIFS

## CC(C)=CCC[C@](C)(O)[C@H]1CC[C@]2(C)[C@@H]1[C@H](O)C[C@@H]1[C@@]3(C)CC[C@H](O)C(C)(C)[C@@H]3[C@@H](O)C[C@]12C [M4, protopanaxatriol]
  IC50: 45.7 ± 3.9 µM
